According to patent US10975064B2, “RIP1 inhibitory compounds and methods for making and using the same” (Rigel Pharmaceuticals, Inc., priority 2018, dated 2021):

System: TNF-alpha induced hypothermia
Assay: acute hypothermia mouse model
Assay type: in vivo
Details: 15 mg/kg, oral gavage, C57BL/6 mice
Procedure: In this example, an acute hypothermia mouse model assay was used to evaluate the ability of compounds disclosed herein to inhibit TNF-alpha induced hypothermia. Female C57BL/6 mice are randomly grouped and weighed on Day-1. On the day of the study (Day 0), mice are administered vehicle or test article by oral gavage. Fifteen minutes after oral administration of test agents, each mouse is administered an intraperitoneal (IP) injection of solution containing recombinant human tumor necrosis factor alpha (TNF-a, 25.0 μg) and zVAD-FMK (200 μg). Body temperature is measured at hour zero (before IP injections) and every hour via rectal probe temperature measuring device. Three (3) hours after IP injections of TNF-a and zVAD/FMK, mice are euthanized by CO2 asphyxiation and blood is collected via cardiac puncture. Serum and plasma are harvested for determination of cytokine and compound levels, respectively. Separate groups of mice (satellite mice) are included for the determination of compound levels in plasma at the time of administration of TNFa/zVAD-FMK. (S)-5-benzyl-N-(5-methyl-4-oxo-2,3,4,5-tetrahydrobenzo[b][1,4]oxazepin-3-yl)-4H-1,2,4-triazole-3-carboxamide (WO 2014/125444), having a structure as illustrated below, was used as a comparative compound and was examined using the same assay protocol.

CN1C(=O)[C@@H](NC(=O)c2n[nH]c(Cc3ccccc3)n2)COc2ccc(N3CC4(CCOCC4)C3)cc21 [Compound I-5, (S)-5-benzyl-N-(5-methyl-4-oxo-7-(7-oxa-2-azaspiro[3.5]nonan-2-yl)-2,3,4,5-tetrahydrobenzo[b][1,4]oxazepin-3-yl)-1H-1,2,4-triazole-3-carboxamide]
inhibition of TNF-alpha induced hypothermia: 81%
